Measurements: ChEMBL document CHEMBL3885861, “Open TG-GATES”

Organism: Rattus norvegicus
Experiment: Open TG-GATES - Regimen: Single
Type: toxicity, organism-based, Sprague-Dawley
Parameters: regimen Single, gender Male, age 6 weeks
Details: in vivo, po, 0 mg/kg, route gavage, dose level Control; for APTT / Bas / Eos / Fbg / Hb / Ht / Lym / MCH / MCHC / MCV / Mono / Neu / PT / Plat / RBC / Ret / WBC: tissue Blood; for KIDNEY_L / KIDNEY_R / KIDNEY_TOTAL: tissue Kidney; for LIVER: tissue Liver; for A/G / ALP / ALT / AST / BUN / CRE / Ca / Cl / DBIL / GLC / IP / K / LDH / Na / PL / RALB / TBIL / TC / TG / TP / gamma-GTP: tissue Plasma

CC(C)NNC(=O)c1ccncc1 [IPRONIAZID]
TERMINAL_BW (3 h): 208.3 g
APTT (3 h): 21.1 s
Bas (3 h): 0%
Eos (3 h): 0.6%
Fbg (3 h): 318.8 mg/dL
Hb (3 h): 13.3 g/dL
Ht (3 h): 38.7%
Lym (3 h): 82.2%
MCH (3 h): 21.3 pg
MCHC (3 h): 34.3%
MCV (3 h): 62.1 fL
Mono (3 h): 1.6%
Neu (3 h): 15%
PT (3 h): 16.4 s
Plat (3 h): 108.8 x10_4/uL
RBC (3 h): 624.6 x10_4/ul
Ret (3 h): 7.2%
WBC (3 h): 72.6 x10_2/uL
KIDNEY_L (3 h): 0.9 g
KIDNEY_R (3 h): 0.9 g
KIDNEY_TOTAL (3 h): 1.9 g
LIVER (3 h): 9.7 g
A/G (3 h): 1.3
ALP (3 h): 1798.2 IU/L
ALT (3 h): 41.4 IU/L
AST (3 h): 78.6 IU/L
BUN (3 h): 13.6 mg/dL
CRE (3 h): 0.2 mg/dL
Ca (3 h): 10.8 mg/dL
Cl (3 h): 107.6 meq/L
DBIL (3 h): 0.004 mg/dL
GLC (3 h): 190.2 mg/dL
IP (3 h): 8 mg/dL
K (3 h): 4.1 meq/L
LDH (3 h): 225 IU/L
Na (3 h): 142.4 meq/L
PL (3 h): 136.4 mg/dL
RALB (3 h): 3.1 g/dL
TBIL (3 h): 0.022 mg/dL
TC (3 h): 75.4 mg/dL
TG (3 h): 53.2 mg/dL
TP (3 h): 5.5 g/dL
gamma-GTP (3 h): 1.2 IU/L
TERMINAL_BW (6 h): 208.9 g
APTT (6 h): 23.2 s
Bas (6 h): 0%
Eos (6 h): 0.8%
Fbg (6 h): 305.8 mg/dL
Hb (6 h): 13.3 g/dL
Ht (6 h): 38.6%
Lym (6 h): 79.4%
MCH (6 h): 21.5 pg
MCHC (6 h): 34.3%
MCV (6 h): 62.5 fL
Mono (6 h): 2.4%
Neu (6 h): 16.6%
PT (6 h): 15.6 s
Plat (6 h): 115.7 x10_4/uL
RBC (6 h): 618.8 x10_4/ul
Ret (6 h): 8.7%
WBC (6 h): 96.2 x10_2/uL
KIDNEY_L (6 h): 0.9 g
KIDNEY_R (6 h): 1 g
KIDNEY_TOTAL (6 h): 1.9 g
LIVER (6 h): 9 g
A/G (6 h): 1.3
ALP (6 h): 1530.2 IU/L
ALT (6 h): 38.6 IU/L
AST (6 h): 71.6 IU/L
BUN (6 h): 11.2 mg/dL
CRE (6 h): 0.2 mg/dL
Ca (6 h): 10.6 mg/dL
Cl (6 h): 105.8 meq/L
DBIL (6 h): 0.006 mg/dL
GLC (6 h): 180 mg/dL
IP (6 h): 9.3 mg/dL
K (6 h): 4.3 meq/L
LDH (6 h): 179.8 IU/L
Na (6 h): 141.4 meq/L
PL (6 h): 140.6 mg/dL
RALB (6 h): 3 g/dL
TBIL (6 h): 0.02 mg/dL
TC (6 h): 75.6 mg/dL
TG (6 h): 62.6 mg/dL
TP (6 h): 5.3 g/dL
gamma-GTP (6 h): 1 IU/L
TERMINAL_BW (9 h): 200.8 g
APTT (9 h): 22.6 s
Bas (9 h): 0%
Eos (9 h): 1%
Fbg (9 h): 314.5 mg/dL
Hb (9 h): 12.9 g/dL
Ht (9 h): 37.8%
Lym (9 h): 75.5%
MCH (9 h): 21.4 pg
MCHC (9 h): 34.3%
MCV (9 h): 62.6 fL
Mono (9 h): 2%
Neu (9 h): 20.5%
PT (9 h): 15.7 s
Plat (9 h): 110.7 x10_4/uL
RBC (9 h): 605.5 x10_4/ul
Ret (9 h): 8.4%
WBC (9 h): 86.5 x10_2/uL
KIDNEY_L (9 h): 0.9 g
KIDNEY_R (9 h): 0.9 g
KIDNEY_TOTAL (9 h): 1.9 g
LIVER (9 h): 8.5 g
A/G (9 h): 1.2
ALP (9 h): 1450.5 IU/L
ALT (9 h): 41.2 IU/L
AST (9 h): 76.5 IU/L
BUN (9 h): 10.5 mg/dL
CRE (9 h): 0.2 mg/dL
Ca (9 h): 10.3 mg/dL
Cl (9 h): 107 meq/L
DBIL (9 h): 0.005 mg/dL
GLC (9 h): 178.2 mg/dL
IP (9 h): 9.8 mg/dL
K (9 h): 4 meq/L
LDH (9 h): 172.2 IU/L
Na (9 h): 141.8 meq/L
PL (9 h): 135 mg/dL
RALB (9 h): 3 g/dL
TBIL (9 h): 0.0175 mg/dL
TC (9 h): 81.8 mg/dL
TG (9 h): 39.8 mg/dL
TP (9 h): 5.5 g/dL
gamma-GTP (9 h): 1.2 IU/L
TERMINAL_BW (24 h): 216 g
APTT (24 h): 21.7 s
Bas (24 h): 0%
Eos (24 h): 1%
Fbg (24 h): 333.2 mg/dL
Hb (24 h): 13.5 g/dL
Ht (24 h): 39.1%
Lym (24 h): 77.8%
MCH (24 h): 21.4 pg
MCHC (24 h): 34.4%
MCV (24 h): 62.3 fL
Mono (24 h): 3%
Neu (24 h): 17.6%
PT (24 h): 16.7 s
Plat (24 h): 124 x10_4/uL
RBC (24 h): 627 x10_4/ul
Ret (24 h): 7.8%
WBC (24 h): 113.7 x10_2/uL
KIDNEY_L (24 h): 1 g
KIDNEY_R (24 h): 1 g
KIDNEY_TOTAL (24 h): 1.9 g
LIVER (24 h): 10.3 g
A/G (24 h): 1.2
ALP (24 h): 1519.2 IU/L
ALT (24 h): 39.8 IU/L
AST (24 h): 76.8 IU/L
BUN (24 h): 17.2 mg/dL
CRE (24 h): 0.2 mg/dL
Ca (24 h): 10.9 mg/dL
Cl (24 h): 107.6 meq/L
DBIL (24 h): 0.002 mg/dL
GLC (24 h): 179.6 mg/dL
IP (24 h): 7.6 mg/dL
K (24 h): 4.4 meq/L
LDH (24 h): 287.6 IU/L
Na (24 h): 142.6 meq/L
PL (24 h): 152.8 mg/dL
RALB (24 h): 3.1 g/dL
TBIL (24 h): 0 mg/dL
TC (24 h): 82.2 mg/dL
TG (24 h): 84.4 mg/dL
TP (24 h): 5.6 g/dL
gamma-GTP (24 h): 1.8 IU/L
